Laboratory results as given in patent US11572369B2, “Bicyclic pyridine compositions and methods of using the same for cancer therapy” (UNIVERSITY OF SOUTH CAROLINA, priority 2019, dated 2023).

Assays:
Test in all cases: KINOMEscan
Format in all cases: binding
Conditions in all cases: 2000 nM
MYLK = target: T1, MYLK (Homo sapiens, UniProt Q15746)
T1 construct: DNA label (for qPCR read-out); purchased KINOMEscan scanMAX panel (DiscoveRx)

HPK1 = target: T2, HPK1 (Homo sapiens, UniProt Q92918)
T2 construct: DNA label (for qPCR read-out); purchased DiscoveRx (KINOMEscan scanMAX panel, contract assay)

BMPR1A = target: T3, BMPR1A (Homo sapiens, UniProt P36894)
T3 construct: DNA label (for qPCR read-out); purchased KINOMEscan scanMAX panel (DiscoveRx)

TGFBR1 = target: T4, TGFBR1 (Homo sapiens, UniProt P36897)
T4 construct: DNA label (for qPCR read-out); purchased DiscoveRx (KINOMEscan scanMAX panel, contract assay)

MYO3B = target: T5, MYO3B (Homo sapiens, UniProt Q8WXR4)
T5 construct: DNA label (for qPCR read-out); purchased KINOMEscan scanMAX panel (DiscoveRx)
T5 sequence (Q8WXR4 whole entry): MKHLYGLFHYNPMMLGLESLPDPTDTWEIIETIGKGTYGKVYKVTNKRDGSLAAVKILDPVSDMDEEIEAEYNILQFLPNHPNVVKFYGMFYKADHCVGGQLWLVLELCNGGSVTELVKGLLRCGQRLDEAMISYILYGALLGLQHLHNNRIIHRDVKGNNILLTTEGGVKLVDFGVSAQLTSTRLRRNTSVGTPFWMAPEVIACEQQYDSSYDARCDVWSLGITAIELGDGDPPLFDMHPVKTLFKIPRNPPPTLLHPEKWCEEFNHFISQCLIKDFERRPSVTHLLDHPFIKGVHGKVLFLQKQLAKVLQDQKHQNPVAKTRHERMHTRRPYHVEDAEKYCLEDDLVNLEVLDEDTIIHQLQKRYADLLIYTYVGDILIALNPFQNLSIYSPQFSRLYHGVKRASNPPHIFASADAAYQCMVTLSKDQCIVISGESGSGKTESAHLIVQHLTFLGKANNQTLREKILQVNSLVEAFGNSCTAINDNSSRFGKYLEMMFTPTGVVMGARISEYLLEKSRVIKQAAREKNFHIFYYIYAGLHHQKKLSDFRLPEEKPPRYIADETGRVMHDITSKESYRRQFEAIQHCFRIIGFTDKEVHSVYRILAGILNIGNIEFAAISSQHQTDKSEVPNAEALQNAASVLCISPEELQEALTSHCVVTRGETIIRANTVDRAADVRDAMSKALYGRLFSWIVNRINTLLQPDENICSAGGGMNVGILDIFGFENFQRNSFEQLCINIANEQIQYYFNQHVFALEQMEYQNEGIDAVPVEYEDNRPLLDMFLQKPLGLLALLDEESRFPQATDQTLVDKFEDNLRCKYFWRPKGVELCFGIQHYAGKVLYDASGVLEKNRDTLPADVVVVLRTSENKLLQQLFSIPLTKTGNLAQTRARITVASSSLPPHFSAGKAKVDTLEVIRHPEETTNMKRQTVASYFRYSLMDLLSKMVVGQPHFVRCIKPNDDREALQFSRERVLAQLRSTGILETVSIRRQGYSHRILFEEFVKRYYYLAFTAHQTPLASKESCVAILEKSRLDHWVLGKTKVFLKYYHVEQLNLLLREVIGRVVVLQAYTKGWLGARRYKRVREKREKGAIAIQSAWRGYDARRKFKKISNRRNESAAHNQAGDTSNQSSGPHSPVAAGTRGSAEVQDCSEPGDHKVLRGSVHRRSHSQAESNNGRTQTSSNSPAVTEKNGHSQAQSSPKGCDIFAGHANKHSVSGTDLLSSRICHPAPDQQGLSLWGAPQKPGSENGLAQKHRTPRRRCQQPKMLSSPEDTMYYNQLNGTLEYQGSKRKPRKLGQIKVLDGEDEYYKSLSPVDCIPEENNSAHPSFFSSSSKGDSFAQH

[1] = target: T6, RSK2(Kin.Dom.2-C-terminal) (Homo sapiens, UniProt P51812)
T6 construct: RSK2(Kin.Dom.2); purchased DiscoveRx (KINOMEscan scanMAX panel)
T6 sequence (P51812 422-679 limits assumed): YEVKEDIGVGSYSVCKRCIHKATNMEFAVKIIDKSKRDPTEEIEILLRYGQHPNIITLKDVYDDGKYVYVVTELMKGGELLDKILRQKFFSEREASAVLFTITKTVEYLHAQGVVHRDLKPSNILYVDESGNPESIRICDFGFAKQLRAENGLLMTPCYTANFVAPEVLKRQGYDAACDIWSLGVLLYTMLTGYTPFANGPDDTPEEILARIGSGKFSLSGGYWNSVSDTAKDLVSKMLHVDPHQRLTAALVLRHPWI

CLK2 = target: T7, CLK2 (Homo sapiens, UniProt P49760)
T7 construct: DNA label (for qPCR read-out); purchased DiscoveRx (KINOMEscan scanMAX service)

[2] = target: T8, RPS6KA5(Kin.Dom.1-N-terminal) (Homo sapiens, UniProt O75582)
T8 construct: Kin.Dom.1; DNA label (qPCR read-out); purchased DiscoveRx (KINOMEscan ScanMAX panel)

VRK2 = target: T9, VRK2 (Homo sapiens, UniProt Q86Y07)
T9 construct: purchased KINOMEscan (DiscoveRx) panel service

HIPK1 = target: T10, HIPK1 (Homo sapiens, UniProt Q86Z02)
T10 construct: DNA label (for qPCR read-out); purchased DiscoveRx (KINOMEscan scanMAX panel, contract assay)
T10 sequence (Q86Z02 whole entry): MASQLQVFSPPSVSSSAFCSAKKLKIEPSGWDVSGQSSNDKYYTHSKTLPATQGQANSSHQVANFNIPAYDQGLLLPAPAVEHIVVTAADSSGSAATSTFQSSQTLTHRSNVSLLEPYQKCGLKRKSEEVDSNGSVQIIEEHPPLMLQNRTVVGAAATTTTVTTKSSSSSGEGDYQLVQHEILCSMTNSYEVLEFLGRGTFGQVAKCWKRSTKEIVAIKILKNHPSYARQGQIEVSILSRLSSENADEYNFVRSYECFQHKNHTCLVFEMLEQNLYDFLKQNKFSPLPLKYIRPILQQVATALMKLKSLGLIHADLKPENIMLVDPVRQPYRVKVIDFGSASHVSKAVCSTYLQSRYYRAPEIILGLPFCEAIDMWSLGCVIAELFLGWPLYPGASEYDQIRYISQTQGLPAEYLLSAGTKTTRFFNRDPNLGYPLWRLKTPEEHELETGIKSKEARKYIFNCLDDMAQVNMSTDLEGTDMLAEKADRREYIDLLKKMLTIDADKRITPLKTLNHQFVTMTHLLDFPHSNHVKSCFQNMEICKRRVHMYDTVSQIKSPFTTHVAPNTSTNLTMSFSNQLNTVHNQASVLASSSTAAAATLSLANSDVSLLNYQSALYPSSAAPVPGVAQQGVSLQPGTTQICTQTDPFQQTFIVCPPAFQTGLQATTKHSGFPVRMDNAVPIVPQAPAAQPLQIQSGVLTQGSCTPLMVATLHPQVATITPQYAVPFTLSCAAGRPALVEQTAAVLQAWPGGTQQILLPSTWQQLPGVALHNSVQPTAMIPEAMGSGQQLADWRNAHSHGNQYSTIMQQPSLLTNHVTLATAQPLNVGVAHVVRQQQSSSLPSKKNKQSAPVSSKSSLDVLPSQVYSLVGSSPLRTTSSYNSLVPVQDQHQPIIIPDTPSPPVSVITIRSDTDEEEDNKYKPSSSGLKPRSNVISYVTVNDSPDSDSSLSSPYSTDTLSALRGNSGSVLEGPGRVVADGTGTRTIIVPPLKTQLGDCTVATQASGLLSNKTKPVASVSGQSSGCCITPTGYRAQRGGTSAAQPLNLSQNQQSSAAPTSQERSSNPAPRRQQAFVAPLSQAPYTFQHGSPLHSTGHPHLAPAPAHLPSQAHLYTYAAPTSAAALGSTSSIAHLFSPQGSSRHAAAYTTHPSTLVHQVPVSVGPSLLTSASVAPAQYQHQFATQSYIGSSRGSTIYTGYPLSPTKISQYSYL

MUSK = target: T11, MUSK (Homo sapiens, UniProt O15146)
T11 construct: DNA label (for qPCR read-out); purchased KINOMEscan scanMAX panel (DiscoveRx)

PKMYT1 = target: T12, PKMYT1 (Homo sapiens, UniProt Q99640)
T12 construct: DNA label (qPCR read-out); purchased KINOMEscan (DiscoveRx) panel

SRPK2 = target: T13, SRPK2 (Homo sapiens, UniProt P78362)
T13 construct: purchased KINOMEscan (DiscoveRx)

YSK4 = YSK4 (Homo sapiens, UniProt Q56UN5)
CSNK1A1 = target: T14, CSNK1A1 (Homo sapiens, UniProt P48729)
T14 construct: DNA label (qPCR read-out); purchased DiscoverX (assay service)

TNK2 = target: T15, TNK2 (Homo sapiens, UniProt Q07912)
T15 construct: DNA label (qPCR read-out); purchased KINOMEscan (DiscoveRx) ScanMAX panel

FER = target: T16, FER (Homo sapiens, UniProt P16591)
T16 construct: DNA label (qPCR read-out); purchased DiscoveRx (KINOMEscan ScanMAX panel)
T16 sequence (P16591 whole entry): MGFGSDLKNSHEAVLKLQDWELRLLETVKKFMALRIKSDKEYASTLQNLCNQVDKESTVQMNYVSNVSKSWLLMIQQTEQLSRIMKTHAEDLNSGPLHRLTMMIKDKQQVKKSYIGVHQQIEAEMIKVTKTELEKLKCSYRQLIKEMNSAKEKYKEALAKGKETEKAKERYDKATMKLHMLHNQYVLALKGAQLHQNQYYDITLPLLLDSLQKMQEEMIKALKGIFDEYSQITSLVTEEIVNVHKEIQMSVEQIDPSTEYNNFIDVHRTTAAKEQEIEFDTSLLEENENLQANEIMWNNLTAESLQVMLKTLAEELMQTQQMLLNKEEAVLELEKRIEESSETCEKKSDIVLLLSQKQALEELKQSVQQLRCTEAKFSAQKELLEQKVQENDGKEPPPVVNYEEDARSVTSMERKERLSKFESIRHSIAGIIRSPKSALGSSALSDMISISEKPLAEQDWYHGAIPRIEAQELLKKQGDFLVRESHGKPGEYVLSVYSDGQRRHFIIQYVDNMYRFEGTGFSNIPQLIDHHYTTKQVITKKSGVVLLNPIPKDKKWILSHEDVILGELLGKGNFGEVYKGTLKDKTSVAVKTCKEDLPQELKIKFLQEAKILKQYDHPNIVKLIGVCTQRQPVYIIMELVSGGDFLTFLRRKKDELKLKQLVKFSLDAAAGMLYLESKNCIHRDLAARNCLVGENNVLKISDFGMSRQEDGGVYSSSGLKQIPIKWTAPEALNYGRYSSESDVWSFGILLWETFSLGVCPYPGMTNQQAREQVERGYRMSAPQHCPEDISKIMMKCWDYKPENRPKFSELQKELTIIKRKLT

PAK7 = target: T17, PAK7 (Homo sapiens, UniProt Q9P286)
T17 construct: purchased DiscoverX (KINOMEscan service)

NEK2 = target: T18, NEK2 (Homo sapiens, UniProt P51955)
T18 construct: DNA label (qPCR read-out); purchased KINOMEscan (ScanMAX panel service)

[3] = target: T19, RSK1(Kin.Dom.2-C-terminal) (Homo sapiens, UniProt Q15418)
T19 construct: RSK1(Kin.Dom.2); purchased DiscoveRx (KINOMEscan scanMAX panel)

RET(M918T) = target: T20, RET(M918T) (Homo sapiens, UniProt P07949, M918T)
T20 construct: purchased DiscoveRx (KINOMEscan scanMAX panel)

HUNK = target: T21, HUNK (Homo sapiens, UniProt P57058)
T21 construct: DNA label (qPCR read-out); purchased KINOMEscan (DiscoveRx) ScanMAX panel

LRRK2 = target: T22, LRRK2 (Homo sapiens, UniProt Q5S007)
T22 construct: purchased KINOMEscan (DiscoveRx) panel service

MEK1 = target: T23, MEK1 (Homo sapiens, UniProt Q02750)
T23 construct: purchased DiscoveRx (KINOMEscan scanMAX panel, service)

DYRK1B = target: T24, DYRK1B (Homo sapiens, UniProt Q9Y463)
T24 construct: DNA label (qPCR read-out); purchased KINOMEscan (DiscoveRx) panel

YANK3 = target: T25, YANK3 (Homo sapiens, UniProt Q86UX6)
T25 construct: purchased KINOMEscan (DiscoveRx) panel service

ITK = target: T26, ITK (Homo sapiens, UniProt Q08881)
T26 construct: DNA label (qPCR read-out); purchased KINOMEscan (DiscoveRx) ScanMAX panel
T26 sequence (Q08881 whole entry): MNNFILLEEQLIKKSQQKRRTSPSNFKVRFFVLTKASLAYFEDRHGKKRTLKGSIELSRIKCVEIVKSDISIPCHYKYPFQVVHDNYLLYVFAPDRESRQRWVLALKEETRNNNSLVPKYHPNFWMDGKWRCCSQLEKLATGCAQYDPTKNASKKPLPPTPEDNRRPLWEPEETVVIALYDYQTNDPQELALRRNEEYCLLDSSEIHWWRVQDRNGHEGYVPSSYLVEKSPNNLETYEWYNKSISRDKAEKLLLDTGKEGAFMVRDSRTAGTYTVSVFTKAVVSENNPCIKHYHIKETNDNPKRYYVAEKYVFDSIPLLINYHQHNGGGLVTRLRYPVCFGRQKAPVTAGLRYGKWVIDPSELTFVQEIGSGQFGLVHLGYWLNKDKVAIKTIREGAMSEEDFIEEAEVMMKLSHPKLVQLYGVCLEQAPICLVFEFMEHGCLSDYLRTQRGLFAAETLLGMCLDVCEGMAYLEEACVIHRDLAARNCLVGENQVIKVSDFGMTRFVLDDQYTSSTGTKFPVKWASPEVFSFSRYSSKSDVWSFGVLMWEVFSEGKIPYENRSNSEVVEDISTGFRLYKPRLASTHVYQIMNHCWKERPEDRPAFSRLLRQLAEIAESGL

SGK = target: T27, SGK (Homo sapiens, UniProt O00141)
T27 construct: purchased DiscoveRx (KINOMEscan scanMAX panel)

CAMK2D = target: T28, CAMK2D (Homo sapiens, UniProt Q13557)
T28 construct: DNA label (qPCR read-out); purchased KINOMEscan (ScanMAX panel service)
T28 sequence (Q13557 whole entry): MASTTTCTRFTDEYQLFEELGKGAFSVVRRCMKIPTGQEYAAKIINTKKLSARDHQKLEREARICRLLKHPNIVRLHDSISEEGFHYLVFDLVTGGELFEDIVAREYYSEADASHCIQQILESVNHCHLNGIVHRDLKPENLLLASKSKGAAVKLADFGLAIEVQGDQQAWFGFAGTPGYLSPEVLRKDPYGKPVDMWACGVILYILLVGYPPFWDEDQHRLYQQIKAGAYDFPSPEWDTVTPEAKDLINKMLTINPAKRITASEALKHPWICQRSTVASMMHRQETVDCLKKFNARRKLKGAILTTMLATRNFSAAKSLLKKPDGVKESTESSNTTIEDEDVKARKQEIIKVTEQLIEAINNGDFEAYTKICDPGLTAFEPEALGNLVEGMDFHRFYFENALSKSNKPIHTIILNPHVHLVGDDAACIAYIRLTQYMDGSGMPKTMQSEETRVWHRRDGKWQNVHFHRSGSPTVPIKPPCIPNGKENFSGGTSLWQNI

MARK1 = MARK1 (Homo sapiens, UniProt Q9P0L2)
EPHA4 = target: T29, EPHA4 (Homo sapiens, UniProt P54764)
T29 construct: purchased DiscoveRx (KINOMEscan scanMAX panel)

CIT = target: T30, CIT (Homo sapiens, UniProt O14578)
T30 construct: DNA label (for qPCR read-out); purchased DiscoveRx (KINOMEscan scanMAX service)

TSSK3 = target: T31, TSSK3 (Homo sapiens, UniProt Q96PN8)
T31 construct: DNA label (for qPCR read-out); purchased DiscoveRx (KINOMEscan scanMAX panel)
T31 sequence (Q96PN8 whole entry): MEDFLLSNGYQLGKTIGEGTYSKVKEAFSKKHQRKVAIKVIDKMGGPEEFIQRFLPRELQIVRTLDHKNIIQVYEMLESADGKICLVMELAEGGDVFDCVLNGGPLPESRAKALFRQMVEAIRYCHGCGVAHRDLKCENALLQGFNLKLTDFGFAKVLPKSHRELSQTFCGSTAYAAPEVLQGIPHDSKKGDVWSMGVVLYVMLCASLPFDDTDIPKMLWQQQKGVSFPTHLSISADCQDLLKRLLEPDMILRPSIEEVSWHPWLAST

PIK3CA = target: T32, PIK3CA (Homo sapiens, UniProt P42336)
T32 construct: DNA label (for qPCR read-out); purchased DiscoveRx (KINOMEscan scanMAX service)

FLT3(D835Y) = target: T33, FLT3(D835Y) (Homo sapiens, UniProt P36888, D835Y)
T33 construct: purchased DiscoveRx (KINOMEscan scanMAX panel)

## CN(C)C(=O)c1ccc(N2CCCN(c3ccnc4sc(C(N)=O)c(N)c34)CC2)cc1 [15u, 3-amino-4-(4-(4-(dimethylcarbamoyl)phenyl)-1,4-diazepan-1-yl)thieno[2,3-b]pyridine-2-carboxamide]
MYLK
  % Ctrl: 74 % Ctrl
HPK1
  % Ctrl: 98 % Ctrl
BMPR1A
  % Ctrl: 100 % Ctrl
TGFBR1
  % Ctrl: 100 % Ctrl
MYO3B
  % Ctrl: 87 % Ctrl
[1]
  % Ctrl: 94 % Ctrl
CLK2
  % Ctrl: 75 % Ctrl
[2]
  % Ctrl: 75 % Ctrl
VRK2
  % Ctrl: 84 % Ctrl
HIPK1
  % Ctrl: 86 % Ctrl
MUSK
  % Ctrl: 94 % Ctrl
PKMYT1
  % Ctrl: 91 % Ctrl
SRPK2
  % Ctrl: 93 % Ctrl
YSK4
  % Ctrl: 74 % Ctrl
CSNK1A1
  % Ctrl: 33 % Ctrl
TNK2
  % Ctrl: 100 % Ctrl
FER
  % Ctrl: 99 % Ctrl
PAK7
  % Ctrl: 100 % Ctrl
NEK2
  % Ctrl: 95 % Ctrl
[3]
  % Ctrl: 100 % Ctrl
RET(M918T)
  % Ctrl: 98 % Ctrl
HUNK
  % Ctrl: 99 % Ctrl
LRRK2
  % Ctrl: 94 % Ctrl
MEK1
  % Ctrl: 93 % Ctrl
DYRK1B
  % Ctrl: 69 % Ctrl
YANK3
  % Ctrl: 81 % Ctrl
ITK
  % Ctrl: 88 % Ctrl
SGK
  % Ctrl: 86 % Ctrl
CAMK2D
  % Ctrl: 99 % Ctrl
MARK1
  % Ctrl: 100 % Ctrl
EPHA4
  % Ctrl: 100 % Ctrl
CIT
  % Ctrl: 51 % Ctrl
TSSK3
  % Ctrl: 93 % Ctrl
PIK3CA
  % Ctrl: 100 % Ctrl
FLT3(D835Y)
  % Ctrl: 46 % Ctrl

## [2H]C([2H])([2H])N(C(=O)c1ccc(N2CCCN(c3ccnc4sc(C(N)=O)c(N)c34)CC2)cc1)C([2H])([2H])[2H] [15u_D6, 3-amino-4-(4-(4-(bis(methyl-d3)carbamoyl)phenyl)-1,4-diazepan-1-yl)thieno[2,3-b]pyridine-2-carboxamide]
MYLK
  % Ctrl: 71 % Ctrl
HPK1
  % Ctrl: 100 % Ctrl
BMPR1A
  % Ctrl: 100 % Ctrl
TGFBR1
  % Ctrl: 100 % Ctrl
MYO3B
  % Ctrl: 100 % Ctrl
[1]
  % Ctrl: 92 % Ctrl
CLK2
  % Ctrl: 83 % Ctrl
[2]
  % Ctrl: 100 % Ctrl
VRK2
  % Ctrl: 56 % Ctrl
HIPK1
  % Ctrl: 71 % Ctrl
MUSK
  % Ctrl: 82 % Ctrl
PKMYT1
  % Ctrl: 94 % Ctrl
SRPK2
  % Ctrl: 100 % Ctrl
YSK4
  % Ctrl: 53 % Ctrl
CSNK1A1
  % Ctrl: 12 % Ctrl
TNK2
  % Ctrl: 100 % Ctrl
FER
  % Ctrl: 100 % Ctrl
PAK7
  % Ctrl: 80 % Ctrl
NEK2
  % Ctrl: 95 % Ctrl
[3]
  % Ctrl: 86 % Ctrl
RET(M918T)
  % Ctrl: 98 % Ctrl
HUNK
  % Ctrl: 100 % Ctrl
LRRK2
  % Ctrl: 70 % Ctrl
MEK1
  % Ctrl: 83 % Ctrl
DYRK1B
  % Ctrl: 100 % Ctrl
YANK3
  % Ctrl: 97 % Ctrl
ITK
  % Ctrl: 87 % Ctrl
SGK
  % Ctrl: 83 % Ctrl
CAMK2D
  % Ctrl: 92 % Ctrl
MARK1
  % Ctrl: 100 % Ctrl
EPHA4
  % Ctrl: 100 % Ctrl
CIT
  % Ctrl: 65 % Ctrl
TSSK3
  % Ctrl: 100 % Ctrl
PIK3CA
  % Ctrl: 79 % Ctrl
FLT3(D835Y)
  % Ctrl: 100 % Ctrl
